Earlier results in PMC7765930, “Antiproliferative Phenanthrenes from Juncus tenuis: Isolation and Diversity-Oriented Semisynthetic Modification” (Molecules, 2020).

Columns and labels:
MCF-7 cells = tested on: MCF-7 cells; set-up: method as in PMID 19193043; settings: read-out: IC50, growth inhibition MCF-7; cited from earlier work
DU145 cells = tested on: DU145 cells; set-up: method as in PMID 19193043; settings: read-out: IC50, growth inhibition DU145; cited from earlier work
HCT-8 cells = tested on: HCT-8 cells; set-up: method as in PMID 19193043; settings: read-out: IC50, growth inhibition HCT-8; cited from earlier work
KB cells = tested on: KB cells; set-up: method as in PMID 19193043; settings: read-out: IC50, growth inhibition KB; cited from earlier work
[1] = tested on: vincristine resistant KBVIN cells; set-up: method as in PMID 19193043; settings: read-out: IC50, growth inhibition KBVIN; cited from earlier work
PC-3 cells = tested on: PC-3 cells; set-up: method as in PMID 19193043; settings: read-out: IC50, growth inhibition PC-3; cited from earlier work
A549 cells = tested on: A549 cells; set-up: method as in PMID 19193043; settings: read-out: IC50, growth inhibition A549; cited from earlier work
HL-60 cell line = tested on: HL-60 cell line; set-up: method as in PMID 22976333; settings: read-out: IC50, cytotoxicity against HL-60; cited from earlier work

| SMILES | IC50 (MCF-7 cells) | IC50 (DU145 cells) | IC50 (HCT-8 cells) | IC50 (KB cells) | IC50 [1] | IC50 (PC-3 cells) | IC50 (A549 cells) | IC50 (HL-60 cell line) |
| --- | --- | --- | --- | --- | --- | --- | --- | --- |
| COC1=CC(=O)c2ccc3cc(OC)c(OC)c(O)c3c2C1=O [calanquinone A] | 100 nM | 1080 nM | 640 nM | 1020 nM | 1430 nM | 510 nM | 610 nM | – |
| COC1=C(OC)C(=O)c2c(ccc3cccc(O)c23)C1=O [5-hydroxy-2,3-dimethoxy-1,4-phenanthrenequinone] | – | – | – | – | – | – | – | 4700 nM |
